# Source: ChEMBL document CHEMBL4680223, “Development of bivalent triarylalkene- and cyclofenil-derived dual estrogen receptor antagonists and downregulators” (Eur J Med Chem, 2020)
# Active and inactive are the calls of the source. The rule behind the calls is not given here.
# Legend:
# [1] = target: T1, Estrogen receptor beta (Homo sapiens, UniProt Q92731); assay: Agonist activity at recombinant human GST-tagged ERbeta assessed as increase in fluorescein-labelled coactivator PGC1 peptide recruitment at 1 uM by LanthaScreen TR-FRET assay
# T1 sequence (Q92731 whole entry): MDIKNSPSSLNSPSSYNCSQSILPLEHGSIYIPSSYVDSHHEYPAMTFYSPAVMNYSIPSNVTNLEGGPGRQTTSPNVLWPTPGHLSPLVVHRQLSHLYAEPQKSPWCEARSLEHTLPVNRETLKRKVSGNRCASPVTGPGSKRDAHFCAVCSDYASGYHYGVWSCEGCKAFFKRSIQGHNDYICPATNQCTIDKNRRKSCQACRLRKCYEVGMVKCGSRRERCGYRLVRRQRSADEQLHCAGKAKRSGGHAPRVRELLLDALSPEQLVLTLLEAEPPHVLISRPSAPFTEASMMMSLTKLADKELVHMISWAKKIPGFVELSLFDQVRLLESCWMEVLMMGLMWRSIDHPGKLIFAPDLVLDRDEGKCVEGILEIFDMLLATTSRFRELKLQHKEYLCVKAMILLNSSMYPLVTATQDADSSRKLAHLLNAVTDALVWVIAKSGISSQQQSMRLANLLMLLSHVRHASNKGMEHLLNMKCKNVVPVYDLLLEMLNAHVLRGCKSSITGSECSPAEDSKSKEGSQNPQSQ
# [2] = target: T1, Estrogen receptor beta; assay: Agonist activity at ERbeta (unknown origin) expressed in human U2OS cells at 0.1 to 1 uM measured after 21 hrs by dual luciferase reporter gene assay; type: cell-based; conditions: dose 0.1-1 µM
# [3] = target: T1, Estrogen receptor beta
# [4] = target: T1, Estrogen receptor beta; remark: listed apart in the source
# [5] = physchem; conditions: water
# Description: Aqueous solubility of compound in water
# [6] = Drug uptake in human MCF7 cells assessed per mg protein at 10 uM incubated for 24 hrs by fluorescence assay; type: ADME, cell-based; conditions: mcf7, 24 h
# [7] = target: T1, Estrogen receptor beta; assay: Antagonist activity at recombinant human GST-tagged ERbeta assessed as inhibition of E2-induced increase in fluorescein-labelled coactivator PGC1 peptide recruitment at 100 nM measured after 30 mins by LanthaScreen TR-FRET assay relative to control; conditions: filed as antagonist
# [8] = Drug uptake in African green monkey COS7 cells assessed per mg protein at 10 uM incubated for 24 hrs by fluorescence assay; type: ADME; conditions: chlorocebus aethiops, cos-7, 24 h
# [9] = test system: MCF7; assay: Antiproliferative activity against human MCF7 cells assessed as reduction in cell metabolic activity at 10 uM measured after 72 hrs by modified MTT based EZ4U assay relative to control; type: functional; design: scale not given: the % may be the effect or the level left
# [10] = test system: COS-7; assay: Cytotoxicity against African green monkey COS7 cells assessed as reduction in cell metabolic activity up to 10 uM measured after 72 hrs by modified MTT based EZ4U assay; type: ADME; conditions: chlorocebus aethiops, cos-7, 72 h
# [11] = target: T1, Estrogen receptor beta; assay: Antagonist activity at recombinant human GST-tagged ERbeta assessed as inhibition of E2-induced increase in fluorescein-labelled coactivator PGC1 peptide recruitment at 1 uM measured after 10 mins by LanthaScreen TR-FRET assay; conditions: filed as antagonist
# [12] = target: T1, Estrogen receptor beta; assay: Antagonist activity at recombinant human GST-tagged ERbeta assessed as inhibition of E2-induced increase in fluorescein-labelled coactivator PGC1 peptide recruitment at 5 uM measured after 30 mins by LanthaScreen TR-FRET assay relative to control; conditions: filed as antagonist
# [13] = target: T2, Estrogen receptor (Homo sapiens) (UniProt P03372); assay: Selective estrogen receptor alpha degrader activity in human MCF7 cells assessed as down regulation of ERalpha expression at 1 uM measured after 4 hrs in presence of protease inhibitor MG-132 by Western blot analysis; type: cell-based
# T2 sequence (whole entry): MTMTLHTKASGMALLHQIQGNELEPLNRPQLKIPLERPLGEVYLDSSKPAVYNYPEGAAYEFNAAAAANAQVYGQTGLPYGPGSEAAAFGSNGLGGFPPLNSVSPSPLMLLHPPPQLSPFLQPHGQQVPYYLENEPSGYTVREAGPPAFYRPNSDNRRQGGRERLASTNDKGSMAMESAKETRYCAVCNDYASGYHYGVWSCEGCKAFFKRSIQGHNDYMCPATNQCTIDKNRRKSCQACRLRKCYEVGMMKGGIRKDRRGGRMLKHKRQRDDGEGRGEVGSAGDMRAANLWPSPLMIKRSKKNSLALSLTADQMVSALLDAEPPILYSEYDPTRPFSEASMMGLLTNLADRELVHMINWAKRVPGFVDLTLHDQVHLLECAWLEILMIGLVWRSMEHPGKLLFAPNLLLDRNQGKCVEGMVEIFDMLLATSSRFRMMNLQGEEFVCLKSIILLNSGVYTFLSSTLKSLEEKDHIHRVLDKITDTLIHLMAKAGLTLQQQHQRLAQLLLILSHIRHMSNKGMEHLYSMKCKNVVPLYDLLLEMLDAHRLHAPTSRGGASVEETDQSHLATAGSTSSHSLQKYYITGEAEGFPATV
# [14] = test system: MCF7; assay: Antiproliferative activity against human MCF7 cells assessed as cell mass at 10 uM measured after 72 hrs by crystal violet staining based assay relative to control; type: functional
# [15] = test system: MCF7; assay: Antiproliferative activity against human MCF7 cells assessed as reduction in cell metabolic activity up to 10 uM measured after 72 hrs by modified MTT based EZ4U assay; type: functional; conditions: dose microM <=10, time 72.0 hrs
# [16] = target: T1, Estrogen receptor beta; assay: Antagonist activity at recombinant human GST-tagged ERbeta assessed as inhibition of E2-induced increase in fluorescein-labelled coactivator PGC1 peptide recruitment at 1 uM measured after 10 to 30 mins by LanthaScreen TR-FRET assay relative to control; conditions: filed as antagonist, time 10-30 min
# [17] = target: T3, Estrogen receptor (Homo sapiens, UniProt P03372); assay: Agonist activity at ERalpha (unknown origin) expressed in human U2OS cells at 0.1 to 1 uM measured after 21 hrs by dual luciferase reporter gene assay; type: cell-based; conditions: dose 0.1-1 µM
# T3 sequence (P03372 whole entry): T2 sequence (whole entry)
# [18] = test system: COS-7; assay: Cytotoxicity against African green monkey COS7 cells assessed as reduction in cell metabolic activity up to 20 uM measured after 72 hrs by modified MTT based EZ4U assay; type: ADME; conditions: chlorocebus aethiops, cos-7, 72 h
# [19] = target: T3, Estrogen receptor
# [20] = target: T3, Estrogen receptor; remark: listed apart in the source
# [21] = test system: MCF7; assay: Antiproliferative activity against human MCF7 cells assessed as cell mass at 50 nM measured after 72 hrs by crystal violet staining based assay relative to control; type: functional
# [22] = test system: MCF7; assay: cells; conditions: Homo sapiens, MCF7, 72 h
# Description: Antiproliferative activity against human MCF7 cells assessed as reduction in cell mass measured after 72 hrs by crystal violet staining based assay
# [23] = test system: COS-7; assay: cells; conditions: Chlorocebus aethiops, COS-7, 72 h
# Description: Cytotoxicity against African green monkey COS7 cells assessed as reduction in cell mass measured after 72 hrs by crystal violet staining based assay
# [24] = test system: MDA-MB-231; assay: Antiproliferative activity against human MDA-MB-231 cells assessed as reduction in cell mass at 10 uM measured after 72 hrs by crystal violet staining based assay relative to control; type: functional; design: scale not given: the % may be the effect or the level left
# [25] = test system: SK-BR-3; assay: Antiproliferative activity against human SK-BR-3 cells assessed as reduction in cell mass at 10 uM measured after 72 hrs by crystal violet staining based assay relative to control; type: functional; design: scale not given: the % may be the effect or the level left
# [26] = test system: MDA-MB-231; assay: Antiproliferative activity against human MDA-MB-231 cells assessed as cell mass at 20 uM measured after 72 hrs by crystal violet staining based assay relative to control; type: functional
# [27] = test system: SK-BR-3; assay: Antiproliferative activity against human SK-BR-3 cells assessed as cell mass at 20 uM measured after 72 hrs by crystal violet staining based assay relative to control; type: functional
SMILES,Activity [1],Activity [2],IC50 [3] [nM],IC50 [4] [nM],solubility [5] [µM],inhibition [7] [%],Activity [10],Activity [17],Activity [18],IC50 [19] [nM],IC50 [20] [nM],also measured
CC/C(=C(/c1ccc(O)cc1)c1ccc(/C=C/C(=O)NCCCCCNC(=O)/C=C/c2ccc(/C(=C(\CC)c3ccccc3)c3ccc(O)cc3)cc2)cc1)c1ccccc1,Not Active,Not Active,15.5,256,34,–,–,–,–,–,–,–
O=C(/C=C/c1ccc(C(=C2CCCCC2)c2ccc(O)cc2)cc1)NCCNC(=O)/C=C/c1ccc(C(=C2CCCCC2)c2ccc(O)cc2)cc1,Not Active,Not Active,27.5,216,6.5,–,–,–,–,–,–,–
O=C(/C=C/c1ccc(C(=C2CCCCC2)c2ccc(O)cc2)cc1)NCCCCNC(=O)/C=C/c1ccc(C(=C2CCCCC2)c2ccc(O)cc2)cc1,Not Active,Not Active,15.7,54.8,10,50,Non-Toxic,–,–,–,–,Drug uptake [6]: 5.22 nmol; Drug uptake [8]: 11.7 nmol; Activity [9]: 69%
CC/C(=C(\c1ccc(O)cc1)c1ccc(/C=C/C(=O)O)cc1)c1ccccc1,–,–,–,–,–,–,Non-Toxic,–,–,–,–,inhibition [11]: Active; inhibition [12]: 50%; Activity [13]: inactive; T/C [14]: 33%; Activity [15]: inactive
CC/C(=C(/c1ccc(O)cc1)c1ccc(/C=C/C(=O)NCCCCNC(=O)/C=C/c2ccc(/C(=C(\CC)c3ccccc3)c3ccc(O)cc3)cc2)cc1)c1ccccc1,Not Active,Not Active,44,215,19,50,–,Not Active,Non-Toxic,18.9,290,Drug uptake [6]: 4.67 nmol; inhibition [16]: 100%; Drug uptake [8]: 3.92 nmol
O=C(/C=C/c1ccc(C(=C2CCCCC2)c2ccc(O)cc2)cc1)NCCCNC(=O)/C=C/c1ccc(C(=C2CCCCC2)c2ccc(O)cc2)cc1,Not Active,Not Active,34,304,15.4,50,Non-Toxic,Not Active,–,1.67,565,Activity [9]: 53%
C[C@]12CC[C@@H]3c4ccc(O)cc4C[C@@H](CCCCCCCCC[S+]([O-])CCCC(F)(F)C(F)(F)F)[C@H]3[C@@H]1CC[C@@H]2O (some centres undefined) [FULVESTRANT],–,–,–,–,–,–,–,–,Non-Toxic,–,–,T/C [14]: 75.5%; T/C [21]: 64%; IC50 [22]: 4930 nM; IC50 [23]: 34000 nM
O=C(/C=C/c1ccc(C(=C2CCCCC2)c2ccc(O)cc2)cc1)NCCCCCNC(=O)/C=C/c1ccc(C(=C2CCCCC2)c2ccc(O)cc2)cc1,–,–,–,–,10,–,Non-Toxic,–,–,–,–,Activity [9]: 50%
CC/C(=C(/c1ccc(O)cc1)c1ccc(OCCN(C)C)cc1)c1ccccc1,–,–,–,–,–,–,–,–,Non-Toxic,–,–,Activity [24]: 79%; Activity [25]: 58%; T/C [26]: -80%; T/C [27]: -81%; IC50 [22]: 4940 nM; IC50 [23]: 8690 nM
CC/C(=C(/c1ccc(O)cc1)c1ccc(/C=C/C(=O)NCCNC(=O)/C=C/c2ccc(/C(=C(\CC)c3ccccc3)c3ccc(O)cc3)cc2)cc1)c1ccccc1,Not Active,Not Active,67.7,78.7,> 40,–,–,Not Active,Non-Toxic,15.1,260,–
CC/C(=C(/c1ccc(O)cc1)c1ccc(/C=C/C(=O)NCCCNC(=O)/C=C/c2ccc(/C(=C(\CC)c3ccccc3)c3ccc(O)cc3)cc2)cc1)c1ccccc1,Not Active,Not Active,22.2,153,24,50,–,Not Active,–,1.28,136,inhibition [16]: 100%; Activity [13]: Active
CC/C(=C(/c1ccc(O)cc1)c1ccc(/C=C/C(=O)NCCN)cc1)c1ccccc1.O=C(O)C(F)(F)F.O=C(O)C(F)(F)F.O=C(O)C(F)(F)F,–,–,–,–,–,–,–,Not Active,Non-Toxic,–,–,Drug uptake [6]: 35.3 nmol; Drug uptake [8]: 33.7 nmol
